Measured values as given in paper PMC4370505 (PLoS ONE, 2015).
Each block holds one compound with its values, some of them ahead of it.

Columns and labels:
[1] = In vitro metabolism in rat liver microsomes with UDPA; type: in vitro ADME; conditions: rat liver microsomes with UGT reaction mixture, 37°C
Method: Incubations of test substances in reaction mixtures without microsomes were used as a control. All samples were protected against light during the experiments.

[2] = Single dose intravenous pharmacokinetic study in Wistar rats; type: in vivo; conditions: 10 mg/kg
Method: Pharmacokinetic studies were conducted with male Wistar rats. Rats were acclimatized and housed at 22°C under 12h light/dark cycle with free access to sterilized commercial food pellets and water in the animal research facility (Curtin University) for at least 3 days prior to experiments. All animal experiments were approved by the Animal Ethics Committee of Curtin University (Approval no: R37–10 Amendment Approval No: A47–10 and A56–10) and were performed according to the Australian Code of Practice for the care and use of animals for scientific purposes. In order to minimize pain and suffering, the dosing and bleeding procedures were conducted under anesthesia (isoflurane at 5% for the induction and 2% for the maintenance, in combination with 1.5% oxygen). At the end of the study, rats were scarified by anesthetic euthanasia using 5% isofluorane with 1.5% oxygen. […] Blood (300 μL) was collected from the tail vein at 0.08, 0.5, 1, 2 and 4 hours into EDTA coated tubes. The blood samples were immediately stored in ice and protected from light until centrifuged (12000 × g at 4°C for 10 min). […] Metabolites were identified using LC-MS/MS (Applied Biosystems, 4000 QTRAP, Toronto, Canada).
Data analysis and representation (mean ± SD) were performed with SigmaPlot version 12 (Systat Software, Inc., Chicago, IL). Pharmacokinetic analysis was performed using Kinetica Version 5.0 (Thermo Fisher Scientific, Inc., Waltham, MA). Non compartmental analysis of the plasma concentration-time data was used to estimate the area under the curve (AUC0-∞; log-linear trapezoidal method), elimination half-life (t½), apparent clearance (CL; Dose÷AUC0-∞), mean residence time (MRT) and volume of distribution (Vss; CL×MRT). Statistical analysis of pharmacokinetic parameters was performed using unpaired t-test with Graphpad Prism software (version 6.05). Pharmacokinetic parameters obtained for each group were analyzed against the resveratrol group and p values were reported.

[3] = cited from earlier work
[4] = design: method as in PMID 18501919; conditions: cited from earlier work
[5] = Stability of resveratrol-polymer conjugates in physiological relevant buffers; type: physicochemical; conditions: phosphate buffer 0.1M pH 7.4, 37°C
Method: Briefly, reversed phase chromatographic separation was employed for analysis with xxx column. The HPLC gradient system consisted of solvent A, buffer pH 7.0 with triethyl amine-formic acid (0.05 and 0.2% v/v in water) and solvent B, methanol. A 30 min linear gradient was programmed as follows: 0 min 5% B, 4 min 20% B, 7 min 20% B, 16 min 55% B, 18 min 55% B, 18.5 min 95% B, 23 min 95% B, 24 min 5% B. The flow rate was maintained at 1 mL/min and the injection volume was 50 μL. The HPLC analysis was performed at ambient temperature. Altech Apollo C18 150 X 4.6 mm, 5μ column was employed for seperation. This HPLC method was validated to precisely separate and quantify the trans-resveratrol in the analyte mixture. There was at least two min difference in retention times for the trans and cis isomers of resveratrol. The UV spectrum of the trans isomer is very different from the cis isomer, thus any change to the trans isomer could have been detected. Although quantification was performed using the fluorescence detector at an excitation wavelength of 320nm and emission at 400 nm, simultaneous UV chromatograms were also recorded for specificity and peak purity purposes.
A similar procedure was used to study the stability of MeO-PEG-PLAO-Succ-RSV in buffers; micelles were prepared as per section 2.8 and diluted 1:5 with buffer solutions and incubated at 37°C. […]

[6] = Stability of resveratrol-polymer conjugates in rat plasma; type: in vitro ADME; conditions: 37°C
Method: The MeO-PEGN-Succ-RSV, 2 kDa, 20 kDa and MeO-PEGO-Succ-RSV 2 kDa (MW quoted in the paper is the size of polymer only. Mw for RSV is 228 Da) at the 10 mg/mL were incubated in plasma at 37°C. […] Aliquots of plasma (0.1 mL) were withdrawn at regular intervals and mixed with acetonitrile (0.9 mL). The mixtures were centrifuged at 10,000 rpm for 5 minutes. The supernatant (0.25 mL) was diluted with water (0.25 mL) and analysed by HPLC [28]. All samples were protected against light during the experiments.

[7] = Behaviour of conjugates in aqueous solution (solubility / self-aggregation); type: physicochemical; conditions: up to 10 mg/mL
Method: A solution of 40 mg of MeO-PEG-PLAO-Succ-RSV conjugate in acetonitrile (2 mL) was prepared. The stock solution was diluted with water (4 mL). The acetonitrile was removed by bubbling inert nitrogen gas at room temperature in the dark. The final volume of micellar/nanoparticle dispersion was adjusted to the required volume with water. For pharmacokinetic studies, final concentration of conjugate in micelle dispersion was 10 mg/mL and for critical micellear concentration measurement, the dispersion was diluted accordingly to obtain a series concentration of conjugate in solution below and above the CMC. The micelles of MeO-PEGO-Succ-RSV were formed spontaneously after dispersing in water.

[8] = DPPH inhibition assay (in vitro antioxidant); type: biochemical; conditions: DPPH 1 x 10^-4M in methanol, 30 min, room temperature
Method: Final concentration of DPPH was maintained at 1 x 10^-4M. […] After 30 min incubation at room temperature, the absorbance of these solutions was determined at 518 nm using a Hewlett Packard 8452A, UV-VIS spectrophotometer (Waldbronn, Germany). […] The IC 50 values were determined from the plot of % DPPH remaining against concentration of RSV and its equivalent conjugates.

[9] = male, Wistar, rat, plasma, mean ± SD

Time within which almost all was metabolized [1]: ≤ 10 min | Plasma concentration after two hours [2]: below the limit of detection | CL ([2]; mean ± SD): 335 ± 140 mL/min/kg | AUC(0-inf) [2, 9]: 2.4 ± 0.7 µM·h | MRT [2, 9]: 1.3 ± 1 h | Vd ([2]; male, Wistar, rat, plasma, mean ± SD, read-out: Vss): 26.8 ± 19.1 L/kg | half-life ([2]; male, Wistar, rat, plasma, mean ± SD, read-out: t½ (converted)): 1.4 ± 0.9 h | clearance ([2]; male, Wistar, rat, plasma, iv, mean ± SD): 333 mL/min/kg
Compound: Oc1ccc(/C=C/c2cc(O)cc(O)c2)cc1 [Resveratrol, trans-Resveratrol]
CL (previous reports) [3]: 183 to 317 mL/min/kg | t½ (previous reports) [3]: 1.3 h

Compound: CN(C)c1ccc(/N=N/c2ccccc2)cc1 [dimethyl yellow]
Aqueous solubility [4]: 13 µg/mL

Compound: MeO-PEG succinyl ester resveratrol [MeO-PEGO-Succ-RSV 2 kDa]
% Conjugate Remaining at 24 hr pH 7.4 [5]: ~65% | Plasma t1/2 ([6]; rat plasma in vitro): <5 min | Intact conjugate detected by HPLC at initial time point ([6]; rat plasma, initial time point of 0 h): almost no intact polymer conjugate was detected | Behaviour in aqueous solution [7]: self-aggregated into polymeric micelles

Compound: α-methoxy poly(ethylene glycol)-co-polylactide succinyl ester resveratrol [MeO-PEG-PLAO-Succ-RSV 2 kDa]
IC 50 DPPH inhibition [8]: similar

Compound: α-methoxy-ω-carboxylic acid poly(ethylene glycol) succinylamide resveratrol [MeO-PEGN-Succ-RSV 2 kDa]
IC 50 DPPH inhibition [8]: similar
